Test results reported in patent publication US4644012A, “Treatment for osteoporosis” (Takeda Chemical Industries, Ltd., priority 1983, dated 1987).
Ends that are not written are not given here.

Assays:
[1] = tested on: rat fetal long bone; assay: Bone resorption inhibiting activity in rat fetal long bone culture (45Ca release); assay type: cell-based, Sprague-Dawley rat; conditions: 3 days
Procedure: Bone resorption inhibiting activity of 7-(1-hydroxycarbonylethyl)oxy-3-phenyl-4H-1-benzopyran-4-one (hereinafter referred to as "compound A") in rat fetal long bone culture
(§1) Determination of bone resorption was performed by the method of Raisz [J. Clin. Invest. 44, 103-116 (1965)]. Thus, a Sprague-Dawley rat on the 19th day of pregnancy was subcutaneously injected with 50μ Ci of ^45 Ca (isotope of calcium, CaCl2 solution), and was laparotomized on the following day. The embryos were aseptically taken out, the forelimbs (radius and ulna) were cut off from the trunk under a binocular dissecting microscope, and the connective tissue and cartilage were removed as much as possible to prepare bone samples. Each bone sample was preincubated at 37° C. for 24 hours in 0.6 ml of the medium containing 2 mg/ml of bovine serum albumin in BGJb medium (Fitton-Jackson modification) [GIBCO Laboratories, Grand Island, N.Y. 14072 U.S.A.]. Then, the sample was further incubated for 3 days in the same medium as above in which 10 μg/ml of compound A had been incorporated. Then, the radioactivity of ^45 Ca in the medium and that of ^45 Ca in the bone were measured and the percentage (%) of ^45 Ca released from the bone into the medium was calculated by the following formula. [formula]
As control, the bones of the embryos from the same litter were similarly incubated in the absence of compound A for 3 days.

[2] = tested on: ICR mice; conditions: mouse, in vivo
Procedure: (§2) Five-week-old ICR mice and 5-week-old Sprague-Dawley rats were used in groups of 10 males and 10 females, and suspensions of compound A or compound B in olive oil were administered orally [2,500, 5,000 and 10,000 mg/kg of each compound] or subcutaneously [1,250, 2,500 and 5,000 mg/kg]. The animals were kept under observation for 14 days.

[3] = tested on: Sprague-Dawley rats; conditions: rat, in vivo
Procedure: as §2

[4] = tested on: rat fetal long bone; assay: Potentiating effect on the bone resorption inhibiting action of calcitonin, PTH-stimulated rat fetal long bone culture (45Ca release); assay type: cell-based, Sprague-Dawley rat; conditions: for potentiation of the inhibitory action of calcitonin on PTH-stimulated bone resorption (in words): calcitonin 3 mU/ml, compound 25 μg/ml
Procedure: as §1
Potentiating effect of 7-(1-hydroxycarbonylethyl)-oxy-3-(4-hydroxyphenyl)-4H-1-benzopyran-4-one (hereinafter referred to as "compound B") and 7-(1-ethoxycarbonylethyl)-oxy-3-phenyl-4H-1-benzopyran-4-one (hereinafter referred to as "compound C") on the bone resorption inhibiting action of calcitonin in rat fetal long bone culture
The bone samples prepared in the same manner as Test Example 1 were preincubated for 24 hours in the same medium as that prepared in Test Example 1, which contains bovine serum albumin in BGJb medium (Fitton-Jackson modification). Then, in the concomitant presence of PTH (parathyroid hormone, a bone resorption stimulant), calcitonin and compound B or compound C, the samples were further incubated for 3 days and the percentage of ^45 Ca released into the medium was calculated by means of the same formula as that in Test Example 1. […]

For `CC(Oc1ccc2c(=O)c(-c3ccccc3)coc2c1)C(=O)O` (stereo not drawn) [compound A, 7-(1-hydroxycarbonylethyl)oxy-3-phenyl-4H-1-benzopyran-4-one], the “suppression of bone resorption (in words)” value ([1]; 10 μg/ml) was “suppressed bone resorption”, the “45Ca (%) released” value ([1]; compound 10 μg/ml, 37° C, mean ± standard deviation, six bones, control 23.6 ± 3.9, * p < 0.05 vs control) was 18.5 ± 2.2% and the LD50 [2] was “could not be calculated”. For the same compound, the LD50 [3] was “could not be calculated”.
With `CC(Oc1ccc2c(=O)c(-c3ccc(O)cc3)coc2c1)C(=O)O` (stereo not drawn) [compound B, 7-(1-hydroxycarbonylethyl)-oxy-3-(4-hydroxyphenyl)-4H-1-benzopyran-4-one] the “potentiation of the inhibitory action of calcitonin on PTH-stimulated bone resorption (in words)” value [4] was “potentiated the inhibitory action of calcitonin on PTH-stimulated bone resorption”, the LD50 [2] was “could not be calculated” and the LD50 [3] was “could not be calculated”.
With `CCOC(=O)C(C)Oc1ccc2c(=O)c(-c3ccccc3)coc2c1` (stereo not drawn) [compound C, 7-(1-ethoxycarbonylethyl)-oxy-3-phenyl-4H-1-benzopyran-4-one] the “potentiation of the inhibitory action of calcitonin on PTH-stimulated bone resorption (in words)” value [4] was “potentiated the inhibitory action of calcitonin on PTH-stimulated bone resorption”.
In the case of “calcitonin: calcitonin, bone resorption inhibitor used with PTH in control II group (CGNLSTCMLGTYTQDFNKFHTFPQTAIGVGAP; ends and bridges not checked; cysteine pairing not given here; UniProt P01258 85-116, looked up) [reference compound]”, the “45Ca (%) released” value ([4]; control II group: PTH + calcitonin 3 mU/ml, no compound, 3 days, PTH alone (control I) 39.7 ± 1.5) is reported as 35.9 ± 4.9%.
